Where two headings read alike, the source gives them in different places.
Settings: for Total impurities: Table 4

Question: Which results are given for “(Z)-3-(1-hydroxybutenyl)benzofuran-2-one tromethamine salt [Example 10]”?
Answer: Total impurities (0 h): 0.08; Total impurities (High Humidity 75%, 10 d): 0.04; Total impurities (High Humidity 92.5%, 10 d): 0.04; Total impurities (High temperature 60°C, 10 d): 0.03; Total impurities (Light (packaged), 10 d): 0.04; Total impurities (Light (unwrapped), 10 d): 0.03; chemical stability (high temperature (60°C), light (unwrapped, packaged), high humidity (92.5%, 75%)): good chemical stability
